Reference: patent US10154974B1, “Use of abscisic acid for the prevention and treatment of malaria” (The Regents of the University of California, priority 2015, dated 2018)

Tests used:
[1] = test system: TAK; experiment: TAK phosphorylation in mosquito midgut; type: in vivo, Anopheles stephensi; settings: ABA-supplemented parasite-fed mosquito midguts
Description: FIG. 11A-D illustrate that ABA decreases P. falciparum infection by increasing TAK phosphorylation. […] Each dot represents one replicate of 15 pooled midguts. […] Phosphorylated TAK levels were analyzed by one sample t-test, NOS expression by Wilcoxon matched-pairs signed rank test, and infection prevalence by Fisher's exact test. * p<0.05.

[2] = test system: nitric oxide synthase (NOS); experiment: NOS transcript levels in mouse liver and spleen; type: in vivo, mice; settings: day 7 of infection
Description: (§1) For mosquito immune gene expression, 20 midguts were dissected from mosquitoes in each treatment group at 1, 2, 4, 6, 8 and 24 hours post-feeding. Midguts were sonicated and stored in Trizol at −20° C. for up to a week before RNA was extracted according to manufacturer's instructions. cDNA synthesis was carried out using QantiTect Reverse Transcription Kit (Qiagen) and 200 ng of cDNA used per reaction for qRT-PCR with Sybr Green (Applied Biosystems). Fold changes in expression levels were calculated using the comparative threshold cycle method. Data were normalized to the housekeeping gene ribosomal protein S7 and to the control treatment. Primers and cycling conditions for AsNOS, defensin, LRIM, TEP1, and APL1 were as previously described (Hauck E S, et al. Microbes Infect. 2013; 15:775-87). For gene expression analysis of mouse liver and spleen, organs were flash frozen after necropsy and stored at −80° C. before RNA was extracted in Trizol and cDNA synthesized. Real-time PCR was performed using TaqMan probe-based expression assays for mouse NOS2, PPARγ (Mm00440940), and β-actin (Applied Biosystems) with volumes and cycling conditions as previously described (Chau et al., Infect Immun, 2013, 81:3515-26). Samples were analyzed in triplicate with 250 ng of cDNA per reaction to confirm uniformity of amplification. […] All expression data were analyzed by one sample t-test.

[3] = test system: human macrophages; settings: in vitro; cited from earlier work
[4] = Complete blood counts; type: in vivo, mice
Description: FIG. 19A-C through FIG. 28A-B and Tables 6-1 through 6-4 support the use of ABA for treating Plasmodium-infected mammalian subjects. In the following tables, 4-5 mice were used per treatment, and data were analyzed by unpaired t-test. […] Abbreviations for Tables 6-3 and 6-4 are as follows: WBC=white blood cells, RBCs=red blood cells, MCV=mean corpuscular volume, MCH=mean corpuscular hemoglobin, MCHC=mean corpuscular hemoglobin concentration, RDW=red blood cell distribution width, MPV=mean platelet volume.

[5] = ABA extraction from mouse plasma and quantification by ELISA; type: in vivo, mice
Description: (§2) Mice were euthanized on day 7 post-infection. Blood was collected by heart puncture, spun at 8,000 rpm for 8 minutes and the plasma collected for ABA quantification. Livers and spleens were collected, retained in 10% formalin for 24 hours and then stored in 70% ethanol before sectioning and staining with hematoxylin and eosin. Liver sections were blindly scored on a scale from 0 to 3 for pigment levels, Kupffer cell density, portal tract inflammation, hemozoin deposition, extramedullary hematopoiesis, sinusoidal leukocyte density, sinusoidal adherence of leukocytes, and presence of microabscesses. Spleen sections were blindly scored on a scale from 0 to 3 for hyperplasia, extramedullary hematopoiesis, pigment, and levels of histiocytes and neutrophils. Pathology scores of control and treated mice were analyzed by unpaired t-test.
ABA was extracted from mouse plasma as described (Engelberth, J Vis Exp, 2009, 28:1127). Briefly, 50 μL of plasma was added to 200 μL extraction buffer (1-propanol:H2O:concentrated HCL at a 2:1:0.002 volume ratio) and vortexed. […] Dried samples were re-eluted in 100% methanol and ABA levels determined using the Phytodetek Abscisic Acid ELISA kit (Agdia) according to the manufacturer's instructions. ABA levels in the plasma of control and ABA-supplemented mice, 4-5 per group, were analyzed by Mann Whitney test.

[6] = test system: MAPK (erk, jnk, p38); experiment: MAPK phosphorylation in mosquito midgut; type: in vivo, Anopheles stephensi; settings: 0 to 4 hours
[7] = test system: defensin; experiment: Defensin mRNA levels in mosquito midgut; type: in vivo, Anopheles stephensi; settings: 100 nM ABA, 4 hours post-feeding
Description: as §1, with “For gene expression analysis of mouse liver and spleen, organs were flash frozen after necropsy and stored at −80° C. before RNA was extracted in Trizol and cDNA synthesized. Real-time PCR was performed using TaqMan probe-based expression assays for mouse NOS2, PPARγ (Mm00440940), and β-actin (Applied Biosystems) with volumes and cycling conditions as previously described (Chau et al., Infect Immun, 2013, 81:3515-26).” left out
Transcript levels of a panel of immune genes previously described to play a role in the mosquito immune response to malaria parasites were examined. […] Mosquitoes were provided with a P. falciparum-infected bloodmeal supplemented with 100 nM ABA or with an equivalent volume of diluent as control, then analyzed at 1-24 hours post feeding.

[8] = test system: influenza; settings: ABA treatment; cited from earlier work
[9] = test system: spleen; experiment: Spleen histology scoring; type: in vivo; settings: P. yoelii-infected mice
Description: as §2

[10] = test system: Anopheles stephensi; experiment: Mosquito egg production and viability; type: in vivo; settings: single ABA-supplemented uninfected bloodmeal
Description: The egg laying rate and hatch rate were analyzed using Fisher's exact test. […] Each dot represents the clutch size of a single mosquito. Clutch size was analyzed by unpaired t-test.

[11] = P. yoelii infection, day 11 post-infection

For `CC1=CC(=O)CC(C)(C)[C@@]1(O)/C=C/C(C)=C\C(=O)O` (racemic) [ABA, (2Z,4E)-5-[(1S)-1-hydroxy-2,6,6-trimethyl-4-oxocyclohex-2-en-1-yl]-3-methylpenta-2,4-dienoic acid], the TAK phosphorylation [1] is listed as “increasing”, the “transcript levels of nitric oxide synthase (NOS)” value [2] is listed as “decreased” and the “activation of human macrophages” value [3] is listed as “activate”. For the same compound, the “percentage of basophils in whole blood” value [4, 11] was “partially rescues decrease”, the “percentage of eosinophils in whole blood” value [4, 11] was “partially rescues decrease” and the “% RDW, Mean” value ([4]; P. yoelii-infected mice) was 34.95%. For the same compound, the “% hematocrit, Mean” value ([4]; P. yoelii-infected mice) was 21.00%, the “% lymphocytes, Mean” value ([4]; P. yoelii-infected mice) was 69.22% and the “% monocytes, Mean” value ([4]; P. yoelii-infected mice) was 5.31%. For the same compound, the “% neutrophils, Mean” value ([4]; P. yoelii-infected mice) was 22.8%, the “MCHC, Mean” value ([4]; P. yoelii-infected mice) was 34.73 g/dL and the “MCV, Mean” value ([4]; P. yoelii-infected mice) was 55.20 fL. For the same compound, the “MPV, Mean” value ([4]; P. yoelii-infected mice) was 6.23 fL, the “RBCs, Mean” value ([4]; P. yoelii-infected mice) was 3.83 M/ul and the “WBC, Mean” value ([4]; P. yoelii-infected mice) was 31.90 K/uL. The “hemoglobin, Mean” value ([4]; P. yoelii-infected mice) was 7.28 g/dL, the “platelets, Mean” value ([4]; P. yoelii-infected mice) was 234.3 K/ul and the complete blood counts ([4]; uninfected and P. yoelii-infected mice) was “no effect”. The “% RDW, Mean” value ([4]; uninfected mice) was 17.02%, the “% hematocrit, Mean” value ([4]; uninfected mice) was 38.48% and the “% lymphocytes, Mean” value ([4]; uninfected mice) was 66.56%. The “% monocytes, Mean” value ([4]; uninfected mice) was 11.71%, the “% neutrophils, Mean” value ([4]; uninfected mice) was 17.53% and the “MCHC, Mean” value ([4]; uninfected mice) was 32.72 g/dL. For the same compound, the “MCV, Mean” value ([4]; uninfected mice) was 43.14 fL, the “MPV, Mean” value ([4]; uninfected mice) was 5.74 fL and the “RBCs, Mean” value ([4]; uninfected mice) was 8.94 M/ul. The “WBC, Mean” value ([4]; uninfected mice) was 5.73 K/uL, the “hemoglobin, Mean” value ([4]; uninfected mice) was 12.56 g/dL and the “platelets, Mean” value ([4]; uninfected mice) was 573.0 K/ul. For the same compound, the “increase of ABA levels in plasma” value ([5]; P. yoelii infection, vs non-supplemented infected mice) was “over 6 fold”, the “ABA levels in plasma” value ([5]; oral supplementation, absence of infection) was “did not alter” and the MAPK phosphorylation [6] was “does not alter”. The “defensin mRNA levels” value [7] was “increase”, the vascular infiltrates [8] was “decreased” and the viral load [8] was “no effect”. For the same compound, the “histiocyte density, pigment deposition, extramedullary hematopoiesis in the spleen” value [9] was “not altered”, the “lymphoid hyperplasia of the spleen” value [9] was “reduced” and the “egg production or viability” value [10] was “does not alter”.
